From patent US20140271734A1, “BILE ACID RECYCLING INHIBITORS FOR TREATMENT OF BARRETT'S ESOPHAGUS AND GASTROESOPHAGEAL REFLUX DISEASE” (LUMENA PHARMACEUTICALS, INC., priority 2013, published 2014)

Legend:
fecal bile acid (FBA) = experiment: Fecal bile acids in rats, LUM001 Q.D. for four days; assay type: in vivo, Wistar rats
Procedure: Male Wistar rats (Charles River Laboratories) weighing 275-300 grams were single-housed in a constant temperature environment with alternating 12 hour light and dark cycles. All animals had continuous access to a commercial rodent diet as well as water. In each study rats were randomly assigned to either vehicle or treatment groups and were administered intragastric doses (Q.D. gavage) of drug dissolved in aqueous 0.2% (v/v) Tween 80 (2 ml kg body weight). The animals were dosed in the morning between 9:00 and 10:00 a.m. for four consecutive days. Fecal samples were collected on papers underneath each cage during the final 48 hour period of the study and analyzed for bile acid content.
Cage papers containing the 48-hour fecal samples were collected at approximately 9:00 a.m. on the final day and used to determine the individual fecal bile acid (FBA) concentration for each animal. Fecal samples from each rat were weighed and a weight of distilled water (1 gram/mL) equal to 2 times the total weight of feces was added to each sample container (e.g., 20 mL water to 10 grams feces). The containers were stored overnight at 4° C. Each sample was homogenized for approximately 45 seconds using a small food processor to yield a homogeneous slurry. 1.4 grams of the homogenate was weighed into 16×100 polypropylene tubes and 2.6 mL of tertiary butanol/distilled water (2:0.6) added to yield a final concentration of 50% (v/v) tertiary butanol in water. The sample was extracted by incubation for 45 minutes in a 37° C. water bath, and subjected to centrifugation at 3000×g for 13 minutes and the supernatant extract collected.
The concentration of bile acids […] in the extract was determined using a 96-well enzymatic assay system (4,5). 20 μl aliquots of each butanol extract was added to two sets of triplicate wells in a 96-well assay plate (one set on each half of the plate). Standardized sodium taurocholate solutions (0.2 and 0.9 mM) and standardized fecal extract solutions (previously made from pooled fecal samples collected from control and drug-treated rats) were analyzed in parallel to provide a bile acid standard curve and internal quality control samples, respectively. 20 μl aliquots of the sodium taurocholate standard were serially diluted to generate a standard curve and were added to two separate sets of triplicate wells.
To each well, 230 μl of reaction mixture containing 1M hydrazine hydrate, 0.1 M pyrophosphate and 0.46 mg/ml NAD was added. To start the reaction, a 50 μl aliquot of either 3a-hydroxysteroid dehydrogenase enzyme (HSD; 0.8 units/ml) or assay buffer (0.1 M sodium pyrophosphate) was added to one set of triplicate wells for each sample, respectively, with the set containing the assay buffer serving as the reaction blank. All reagents were obtained from Sigma Chemical Co., St. Louis, Mo. Following a 60 minute incubation at room temperature, the optical density at 340 nm was measured and the mean of each set of triplicate wells was calculated. The difference in optical density between the corresponding wells containing the HSD enzyme and the wells containing the assay buffer was used to determine the bile acid concentration (mM) of each sample by comparison to the sodium taurocholate standard curve. The bile acid concentration of the extract and the weight of the fecal homogenate (grams) were used to calculate FBA concentration in mmoles/day for each animal. The mean FBA concentration (mmoles/day) of the vehicle group was subtracted from the FBA concentration of individual rats in a treatment group to yield the increase in FBA concentration due to drug treatment for that animal. A mean value for the increase in FBA for each group was determined and compared to the vehicle group used, to determine compound dosing efficacy. Data was the average from the two days of fecal collection (Mean±SEM, n=4-20). […]

[1] = Body weight of hamsters, LUM001 for 28 days; assay type: in vivo, golden Syrian hamsters; details: n=10
Procedure: Male golden Syrian hamsters (126-147 gm) were obtained from Charles Rivers Laboratories and were single housed in a constant temperature environment with alternating 12-hour light and dark cycles. Hamsters were fed Teklad 7001 rodent meal chow at libitum for two weeks before the experimental studies began and switched to Teklad 7001 rodent meal chow supplemented with 0.24% cholesterol on day one of the 28-day experiment. LUM001 was dissolved in an aqueous solution of 0.2% (w/v) Tween 80 and administered Q.D. by intragastric gavage between 9 a.m. and 10 a.m. each morning using a syringe fitted with a flexible feeding tube. Blood samples were collected after 14- and 28-day treatment periods by orbital sinus and cardiac puncture, respectively. Hamsters were anesthetized but not fasted prior to blood collections. Fecal samples were collected during a 48-hour period at the end of days 14 and 28 (i.e., days 13-14 and 27-28, respectively).

`CCCCC1(CCCC)CS(=O)(=O)c2ccc(N(C)C)cc2[C@@H](c2ccc(OCc3ccc(C[N+]45CCN(CC4)CC5)cc3)cc2)[C@H]1O` [LUM001] gave a Fecal Bile Acids (fecal bile acid (FBA); Q.D. 0.0006 mg/kg/day) of 34 µmol/day, a Fecal Bile Acids, Increase over Vehicle (Delta) (fecal bile acid (FBA); Q.D. 0.0006 mg/kg/day) of 12.1 µmol/day and a Fecal Bile Acids (fecal bile acid (FBA); Q.D. 0.002 mg/kg/day) of 26.6 µmol/day. The Fecal Bile Acids, Increase over Vehicle (Delta) (fecal bile acid (FBA); Q.D. 0.002 mg/kg/day) was 4.1 µmol/day, the Fecal Bile Acids (fecal bile acid (FBA); Q.D. 0.003 mg/kg/day) was 31.3 µmol/day and the Fecal Bile Acids, Increase over Vehicle (Delta) (fecal bile acid (FBA); Q.D. 0.003 mg/kg/day) was 10.7 µmol/day. It also gave a Fecal Bile Acids (fecal bile acid (FBA); Q.D. 0.008 mg/kg/day) of 25.8 µmol/day, a Fecal Bile Acids, Increase over Vehicle (Delta) (fecal bile acid (FBA); Q.D. 0.008 mg/kg/day) of 5.9 µmol/day and a Fecal Bile Acids (fecal bile acid (FBA); Q.D. 0.016 mg/kg/day) of 41.6 µmol/day. The Fecal Bile Acids, Increase over Vehicle (Delta) (fecal bile acid (FBA); Q.D. 0.016 mg/kg/day) was 24.7 µmol/day, the Fecal Bile Acids (fecal bile acid (FBA); Q.D. 0.04 mg/kg/day) was 44 µmol/day and the Fecal Bile Acids, Increase over Vehicle (Delta) (fecal bile acid (FBA); Q.D. 0.04 mg/kg/day) was 21.7 µmol/day. The Fecal Bile Acids (fecal bile acid (FBA); Q.D. 0.08 mg/kg/day) was 55.6 µmol/day, the Fecal Bile Acids, Increase over Vehicle (Delta) (fecal bile acid (FBA); Q.D. 0.08 mg/kg/day) was 35.2 µmol/day and the Fecal Bile Acids (fecal bile acid (FBA); Q.D. 0.2 mg/kg/day) was 62.7 µmol/day. It also gave a Fecal Bile Acids, Increase over Vehicle (Delta) (fecal bile acid (FBA); Q.D. 0.2 mg/kg/day) of 40.8 µmol/day, a Fecal Bile Acids (fecal bile acid (FBA); Q.D. 0.4 mg/kg/day) of 62.3 µmol/day and a Fecal Bile Acids, Increase over Vehicle (Delta) (fecal bile acid (FBA); Q.D. 0.4 mg/kg/day) of 47 µmol/day. For the same molecule, the Fecal Bile Acids (fecal bile acid (FBA); Q.D. 2 mg/kg/day) was 71.6 µmol/day, the Fecal Bile Acids, Increase over Vehicle (Delta) (fecal bile acid (FBA); Q.D. 2 mg/kg/day) was 54.6 µmol/day and the Fecal Bile Acids (fecal bile acid (FBA); all doses, Q.D. gavage for four days) was “significantly increased fecal bile acids for all doses”. The “Body Weight (BW)” value ([1]; 5 mg/kg/day) was 130 g, the “Body Weight (BW)” value ([1]; 15 mg/kg/day) was 136 g and the “Body Weight (BW)” value ([1]; 50 mg/kg/day) was 130 g.
